Like-named read-outs stand apart in the source and are kept apart here.
Columns and labels:
MCF7 cell line = test: Cancer cell growth inhibition, SRB dye assay (single agents and 50:50 IC50 mixtures); format: cell-based, human; settings: for Vincristine Dose Reduction: 50:50 IC50 mixture vs vincristine alone, Example 3
Procedure: (§1) Cancer cells were seeded the day before application of drug in triplicate or quadruplicate in 96-well plates, allowed to grow in the presence of drug for 6 days before cell growth relative to untreated control wells was determined with a dye assay. Cells were seeded in triplicate or quadruplicate at 3-4,000 per microtitre well in 90 μl of RPMI culture medium/10% foetal calf serum/penicillin, streptomycin mix, treated with 10 μl of drug (prepared in a dilution plate at 10× concentration required), and allowed to grow until the controls were nearly confluent (6 days). SRB: Plates were washed with PBS, fixed with methylated spirits, washed with tap water and stained with 50 μL/well of SRB solution (sulforhodamine, 0.4% in 1% acetic acid), followed by washing with tap water and 1% acetic acid, solubilisation in Tris and absorbance read at 564 nm in an ELISA reader. Data was collected using ELISA plate reader software—SOFTmax PRO3.1.2, then imported into EXCEL. The mean and SD of replicates were calculated as a % of control, after subtraction of the blank value (wells with no cells). A graph was plotted of % control vs dose of agent and IC50 (half maximal inhibitory concentration) values determined. […] The cells were allowed to grow until the controls were nearly confluent after 5-6 days. Plates were then washed with PBS, fixed in ethanol and stained with 50 μL/well of SRB solution (sulforhodamine, 0.4% in 1% acetic acid), followed by washing with 1% acetic acid and solubilisation in Tris. The absorbance was read at 564 nm using an ELISA reader. […] Cambridge University Press). […] The inhibitory data from each mixture was used to determine an IC50 of IC50 value, where the concentrations used were the Multiplying Factor values. In order to determine the actual IC50 contribution of each component in the two-component mixture, the IC50 of IC50 value was multiplied by the IC50 of the individual component. This can then be used to determine the reduction in IC50 contribution (ie, reduction in dose) of the chemotherapeutic agent due to the presence of the steroid saponin in the mixture. A simpler way of determining the reduction in dose is to use the following simple formula: […]

LNCap cell line = test: as above; format: cell-based, human; settings: for Vincristine Dose Reduction: 50:50 IC50 mixture vs vincristine alone, Example 3
Procedure: as §1

K562 cell line = test: as above; format: cell-based, human
Procedure: (§2) Cancer cells were seeded the day before application of drug in triplicate or quadruplicate in 96-well plates, allowed to grow in the presence of drug for 6 days before cell growth relative to untreated control wells was determined with a dye assay.
(§3) Cells were seeded in triplicate or quadruplicate at 3-4,000 per microtitre well in 90 μl of RPMI culture medium/10% foetal calf serum/penicillin, streptomycin mix, treated with 10 μl of drug (prepared in a dilution plate at 10× concentration required), and allowed to grow until the controls were nearly confluent (6 days).
(§4) SRB: Plates were washed with PBS, fixed with methylated spirits, washed with tap water and stained with 50 μL/well of SRB solution (sulforhodamine, 0.4% in 1% acetic acid), followed by washing with tap water and 1% acetic acid, solubilisation in Tris and absorbance read at 564 nm in an ELISA reader.
(§5) Data was collected using ELISA plate reader software—SOFTmax PRO3.1.2, then imported into EXCEL. The mean and SD of replicates were calculated as a % of control, after subtraction of the blank value (wells with no cells). A graph was plotted of % control vs dose of agent and IC50 (half maximal inhibitory concentration) values determined.
(§6) Tumour cells were seeded in duplicate in 96-well plates at 2-5,000 per microtitre well containing RPMI culture medium/10% foetal calf serum. The cells were allowed to grow until the controls were nearly confluent after 5-6 days. Plates were then washed with PBS, fixed in ethanol and stained with 50 μL/well of SRB solution (sulforhodamine, 0.4% in 1% acetic acid), followed by washing with 1% acetic acid and solubilisation in Tris. The absorbance was read at 564 nm using an ELISA reader.
(§7) The IC50, or concentration required to inhibit cell growth by 50%, was determined from the percentage inhibition versus concentration data using the probit calculation methods of Finney (Finney D J (1971). Probit Analysis. 3rd Edition. Cambridge University Press).
(§8) The inhibitory data from each mixture was used to determine an IC50 of IC50 value, where the concentrations used were the Multiplying Factor values. In order to determine the actual IC50 contribution of each component in the two-component mixture, the IC50 of IC50 value was multiplied by the IC50 of the individual component. This can then be used to determine the reduction in IC50 contribution (ie, reduction in dose) of the chemotherapeutic agent due to the presence of the steroid saponin in the mixture. A simpler way of determining the reduction in dose is to use the following simple formula: […]
The cell seeding and ELISA plate methodology of Example 2 were used for determining inhibition of the K562 cell line.

PC3 cell line = test: as above; format: cell-based, human; settings: single agent, Example 2
Procedure: as §2, §3, §4, §5, §6, §7, §8

HT29 cell line = test: as above; format: cell-based, human; settings: single agent, Example 2
Procedure: as §2, §3, §4, §5, §6, §7, §8

A549 cell line = test: as above; format: cell-based, human
Procedure: as §2, §3, §4, §5, §6, §7, §8

DU145 cell line = test: as above; format: cell-based, human; settings: single agent, Example 2
Procedure: as §2, §3, §4, §5, §6, §7, §8

[1] = system: PC3, DU145, A549 and HT29 cell lines; test: Cancer cell growth inhibition, IC50 values used in assay for four cell lines (Example 5); format: cell-based, human; settings: value used to make up 50:50 IC50 mixtures
Procedure: as §6, §7
The cell seeding and ELISA plate methodology of Example 2 were used for determining inhibition of four cancer cell lines. IC50 values were determined for the steroid saponins dioscin, deltonin and prosapogenin A, and their mixtures with cisplatin, docetaxel, doxorubicin and vincristine, using PC3, DU145, A549 and HT29 cell lines.

HT29 human cells = test: In vivo tumour volume, HT29 cells subcutaneously introduced into mice, 5-fluorouracil and deltonin; set-up: species or system Balb/c nude female mice; settings: 5-Fluorouracil 37.5 mg/kg 1 × weekly
Source text: 5-Fluorouracil (5FU) is the principal chemotherapeutic drug used in treating colon cancer; it is most commonly co-administered with other chemotherapeutic agents. This study compared the co-administration of 5-fluoruracil and deltonin, with administration of mono-administration of both 5-fluorourcil and deltonin.
72 female Balb/c nude female mice were microchipped, weighed and randomised based on body weight into 8 groups with 9 mice per group. […]
HT29 human […] carcinoma cells were cultured in RPMI1640 cell culture medium, which was supplemented with 10% FBS and penicillin-streptomycin (50 IU/mL final concentration). The cells were harvested by trypsinisation, washed twice in HBSS and counted. The cells were then resuspended in HBSS and adjusted to a final volume containing 2×10^7 cells/mL. For inoculation, the needle was introduced through the skin into the subcutaneous space just below the right shoulder, where 100 μL of cells (2×10^6) were discharged.
When the tumour volumes had reached an average of greater than 200 mm^3, treatment was started (Day 0). Tumour volumes were measured 3-times weekly, and determined according to the formula: V(mm^3)=length×diameter^2×π/6
Treatment was continued for 17 days. The mean tumour volumes for each dosage regime are given in Table 24 and are presented graphically in FIG. 1: […]

[2] = Example 3, value used to make up 50:50 IC50 mixtures, read-out: IC50 values used in assay
[3] = single agent, Example 2, read-out: IC50
[4] = Homo sapiens, 144 h, Example 3, value used to make up 50:50 IC50 mixtures, read-out: IC50 values used in assay
[5] = Homo sapiens, 144 h, single agent, Example 2, read-out: IC50
[6] = Example 4, value used to make up 50:50 IC50 mixtures, read-out: IC50 values used in assay
[7] = Homo sapiens, 144 h, Example 4, value used to make up 50:50 IC50 mixtures, read-out: IC50 values used in assay

IC50 (MCF7 cell line; [4]) | IC50 (MCF7 cell line; [5]) | IC50 (LNCap cell line; [4]) | IC50 (LNCap cell line; [5]) | IC50 (K562 cell line; [5]) | IC50 (PC3 cell line; Homo sapiens, PC-3, 144 h) | IC50 (HT29 cell line; Homo sapiens, HT-29, 144 h) | IC50 (A549 cell line; [5]) | IC50 (DU145 cell line; Homo sapiens, DU-145, 144 h) | IC50 ([1]; Homo sapiens) | Structure (SMILES) | further results
 |  |  |  |  |  |  |  |  |  | N.N.[Cl][Pt][Cl] [Cisplatin] | IC50 (MCF7 cell line; [2]): 800 nM; IC50 (MCF7 cell line; [3]): 650 nM; IC50 (LNCap cell line; [2]): 800 nM; IC50 (LNCap cell line; [3]): 700 nM; IC50 (K562 cell line; [3]): 820 nM; IC50 (PC3 cell line): 1400 nM; IC50 (HT29 cell line): 930 nM; IC50 (A549 cell line; [3]): 1200 nM; IC50 (DU145 cell line): 540 nM; IC50 [1]: 800 nM
15 nM | 14 nM | 4 nM | 3.9 nM | 8.5 nM | 22 nM | 28 nM | 16 nM | 11 nM | 15 nM | COc1cccc2c1C(=O)c1c(O)c3c(c(O)c1C2=O)C[C@@](O)(C(=O)CO)C[C@@H]3O[C@H]1C[C@H](N)[C@H](O)[C@H](C)O1 [Doxorubicin] | 
 |  |  |  |  |  |  |  |  |  | C[C@@H]1CC[C@@]2(OC1)O[C@H]1C[C@H]3[C@@H]4CC=C5C[C@@H](O[C@@H]6O[C@H](CO)[C@@H](O)[C@H](O)[C@H]6O[C@@H]6O[C@@H](C)[C@H](O)[C@@H](O)[C@H]6O)CC[C@]5(C)[C@H]4CC[C@]3(C)[C@H]1[C@@H]2C [Prosapogenin A, diosgenin Rha2, Glc] | Vincristine Dose Reduction (MCF7 cell line): effectively zero reduction; IC50 (MCF7 cell line; [2]): 2000 nM; IC50 (MCF7 cell line; [6]): 2000 nM; Vincristine Dose Reduction (LNCap cell line): effectively zero reduction; IC50 (LNCap cell line; [2]): 2000 nM; IC50 (K562 cell line; Example 6, value used to make up 50:50 IC50 mixtures, read-out: IC50 values used in assay): 2000 nM; IC50 (A549 cell line; [6]): 2000 nM; IC50 [1]: 2000 nM
0.03 nM | 0.039 nM | 0.03 nM | 0.026 nM | 0.42 nM | 0.09 nM | 0.51 nM | 0.27 nM | 0.15 nM | 0.2 nM | CC(=O)O[C@@]12CO[C@@H]1C[C@H](O)[C@@]1(C)C(=O)[C@H](O)C3=C(C)[C@@H](OC(=O)[C@H](O)[C@@H](NC(=O)OC(C)(C)C)c4ccccc4)C[C@@](O)([C@@H](OC(=O)c4ccccc4)[C@H]21)C3(C)C [Docetaxel] | 
 | 1.1 nM |  | 1.2 nM | > 3.3 nM | 2.1 nM | > 3.3 nM | 3.2 nM | 2.7 nM |  | CC(=O)O[C@H]1C(=O)[C@@]2(C)[C@H]([C@H](OC(=O)c3ccccc3)[C@]3(O)C[C@H](OC(=O)[C@H](O)[C@@H](NC(=O)c4ccccc4)c4ccccc4)C(C)=C1C3(C)C)[C@]1(OC(C)=O)CO[C@@H]1C[C@@H]2O [Paclitaxel] | IC50 (MCF7 cell line; [7]): 1 nM; IC50 (A549 cell line; [7]): 3 nM
 |  |  |  |  |  |  |  |  |  | O=c1[nH]cc(F)c(=O)[nH]1 [5-Fluorouracil (5FU), 5-Fluorouracil] | Mean tumour volume (HT29 human cells; Day 0): 236 mm^3; Mean tumour volume (HT29 human cells; Day 2): 280 mm^3; Mean tumour volume (HT29 human cells; Day 4): 307 mm^3; Mean tumour volume (HT29 human cells; Day 7): 330 mm^3; Mean tumour volume (HT29 human cells; Day 9): 432 mm^3; Mean tumour volume (HT29 human cells; Day 11): 511 mm^3; Mean tumour volume (HT29 human cells; Day 14): 681 mm^3; Mean tumour volume (HT29 human cells; Day 16): 676 mm^3; Mean tumour volume (HT29 human cells; Day 18): 824 mm^3
0.5 nM | 0.49 nM | 0.5 nM | 0.49 nM | 0.21 nM | 1.1 nM | 2.4 nM | 6 nM | 2.9 nM | 2.5 nM | CC[C@]1(O)C[C@H]2CN(CCc3c([nH]c4ccccc34)[C@@](C(=O)OC)(c3cc4c(cc3OC)N(C=O)[C@H]3[C@@](O)(C(=O)OC)[C@H](OC(C)=O)[C@]5(CC)C=CCN6CC[C@]43[C@@H]65)C2)C1 [Vincristine] | 

Structure (SMILES) | IC50 (MCF7 cell line; [4]) | IC50 (MCF7 cell line; [5]) | IC50 (LNCap cell line; [4]) | IC50 (LNCap cell line; [5]) | IC50 (K562 cell line; [5]) | IC50 (PC3 cell line; Homo sapiens, PC-3, 144 h) | IC50 (HT29 cell line; Homo sapiens, HT-29, 144 h) | IC50 (A549 cell line; [5]) | IC50 (DU145 cell line; Homo sapiens, DU-145, 144 h) | IC50 ([1]; Homo sapiens) | further results
C[C@@H]1CC[C@@]2(OC1)O[C@H]1C[C@H]3[C@@H]4CC=C5C[C@@H](O[C@@H]6O[C@H](CO)[C@@H](O[C@@H]7O[C@@H](C)[C@H](O)[C@@H](O)[C@H]7O)[C@H](O)[C@H]6O[C@@H]6O[C@@H](C)[C@H](O)[C@@H](O)[C@H]6O)CC[C@]5(C)[C@H]4CC[C@]3(C)[C@H]1[C@@H]2C [Dioscin, diosgenin Rha2, [Rha4], Glc] | 1000 nM |  | 1000 nM |  |  |  |  |  |  | 1000 nM | Vincristine Dose Reduction (MCF7 cell line): consistent reduction in dosage; Vincristine Dose Reduction (LNCap cell line): consistent reduction in dosage; IC50 (K562 cell line; Homo sapiens, 144 h, Example 6, value used to make up 50:50 IC50 mixtures, read-out: IC50 values used in assay): 1000 nM; IC50 (A549 cell line; [7]): 1000 nM

Reference: patent US9358247B2, “Methods and compositions for promoting activity of anti-cancer therapies” (Oncology Research International Limited, priority 2006, dated 2016)
